According to PubChem BioAssay AID2060340 (Molecular Pharmacology Branch, DTP, NCI, 2025):
pIC50: −log10 of the molar value. “And” between values parts separate entries of the source, which are not always exact repeats. Equal entries are not always repeated. Blank lines part the entries; values can stand above or below the compound they belong to.

Test system: 349418-098-R-PDC spheroids, viability, % test/control
Assay: Anticancer human tumor 349418-098-R-PDC patient-derived lung adenocarcinoma cell line growth inhibition [IpAb]
Conditions: spheroids with HUVEC and MSC; for viability, T/C: stronger effect = lower value
From the text: Combinatorial screen of targeted agents with ipatasertib and abemaciclib in multi-cell type tumor spheroids
A high-throughput screen of multi-cell type tumor spheroids was designed to identify active combinations of targeted small molecules and ipatasertib or abemaciclib. Complex spheroids include a stromal component modeled by human endothelial cells (HUVEC) and fibroblasts modeled by human mesenchymal stem cells (MSCs). The concentration ranges selected for each drug and investigational agent were based upon clinically achievable concentrations if the clinical Cmax of the agent was known.
Compounds. The drugs and investigational agents: ipatasertib (NSC767898), abemaciclib(NSC768073), selumetinib (NSC741078), trametinib (758246), adavosertib (NSC754352), everolimus (NSC733504), sapanisertib (NSC764658), vemurafenib (NSC761431), venetoclax (NSC766270), copanlisib (NSC809693), apelisib (NSC765974), palbociblib (NSC758247), vemurafenib (NSC761431), dabrafenib (NSC764134), ravoxertinib (NSC781343), BMS-387032 (NSC767048), sotorasib (NSC818433), talazoparib (NSC767125) and afursertib (NSC778305), were obtained from the National Cancer Institute (NCI) Developmental Therapeutics Program Chemical Repository. The FDA-approved anticancer drug set is available from the NCI Developmental Therapeutics Program. […] The stock solutions were prepared in dimethyl sulfoxide (DMSO, Sigma-Aldrich, St. Louis, MO, cat. D2650) at 800-fold the tested concentration and stored at -70 degrees C prior to their use. All drugs and investigational agents were tested over a range starting from a high concentration at or near the clinical Cmax and decreasing in half-log increments. If the clinical Cmax for an agent had not been determined, the highest concentration tested was 10 microM.
NCI60 Cell Culture. NCI60 cell lines were obtained from the NCI Developmental Therapeutics Program Tumor Repository. For each lot of cells, the Repository performed Applied Biosystems AmpFLSTR Identifiler testing with PCR amplification to confirm consistency with the published Identifier STR profile for each cell line. Cells were kept in continuous culture for no more than 20 passages. The optimal seeding densities for each of the cell lines at each time point assessed were determined prior to performing the concentration response studies. Briefly, the NCI60 human tumor lines were grown as monolayers in RPMI 1640 medium supplemented with 10% FBS and 2 mmol/L L-glutamine.
An additional 9 lines were from the NCI60 cell line panel including MDA-MB-231 breast carcinoma, MDA-MB-468 breast carcinoma, MCF7 breast carcinoma, Hs578T breast carcinoma, MALME-3M melanoma, SK-MEL-2 melanoma, SK-OV-3 ovarian carcinoma, DU-145 prostate carcinoma, PC-3 prostate carcinoma, all cell lines along with major genetic alterations are listed on Table 2. Pooled donor human umbilical vein endothelial cells (HUVEC, Lonza, cat. CC-2519) and human mesenchymal stem cells (hMSC, Lonza, cat. PT-2501) were purchased from Lonza (Walkersville, MD).
PDMR cell lines were grown in complete medium (DC medium): Dulbecco's modified Eagle's medium (DMEM)/F12 supplemented with 5% fetal bovine serum (FBS), 2 mM L-glutamine, 100 U/mL penicillin and 100 µg/ml streptomycin, 0.4 µg/ml hydrocortisone, 10 ng/ml epidermal growth factor (EGF) recombinant human protein, 24 µg/mL adenine, and 0.1 mg/mL primocin. During culture from frozen stock vials, PDMR cells were cultured in the same medium containing 10 µM Y-27632 (see Table 3). The PDCs were cultured in complete DMEM/F12 media without 10 microM Y-27632 dihydrochloride for at least two passages prior to the screen. The pooled donor HUVEC and hMSC were cultured in endothelial cell growth medium 2 (PromoCell, Heidelberg, Germany, cat. C-22011) and mesenchymal stem cell growth medium 2 (PromoCell, cat. C-28009), respectively. For all experiments, HUVEC and hMSC were used at passages </=5.
[…]

[1] = curve of first compound, second compound 0.1 µM
[2] = curve of first compound, second compound 0.316 µM
[3] = curve of first compound, second compound 1 µM
[4] = second compound 0.1 µM, first compound 0.0316 µM
[5] = second compound 0.1 µM, first compound 0.1 µM
[6] = second compound 0.1 µM, first compound 0.316 µM
[7] = second compound 0.1 µM, first compound 1 µM
[8] = second compound 0.1 µM, first compound 3.16 µM
[9] = second compound 0.1 µM, first compound 10 µM
[10] = second compound 0.316 µM, first compound 0.0316 µM
[11] = second compound 0.316 µM, first compound 0.1 µM
[12] = second compound 0.316 µM, first compound 0.316 µM
[13] = second compound 0.316 µM, first compound 1 µM
[14] = second compound 0.316 µM, first compound 3.16 µM
[15] = second compound 0.316 µM, first compound 10 µM
[16] = second compound 1 µM, first compound 0.0316 µM
[17] = second compound 1 µM, first compound 0.1 µM
[18] = second compound 1 µM, first compound 0.316 µM
[19] = second compound 1 µM, first compound 1 µM
[20] = second compound 1 µM, first compound 3.16 µM
[21] = second compound 1 µM, first compound 10 µM
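Further: spheroids exposed to compounds for 7 days.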

SMILES: CC1(C)CCC(CN2CCN(c3ccc(C(=O)NS(=O)(=O)c4ccc(NCC5CCOCC5)c([N+](=O)[O-])c4)c(Oc4cnc5[nH]ccc5c4)c3)CC2)=C(c2ccc(Cl)cc2)C1 + CC(C)NCC(C(=O)N1CCN(c2ncnc3c2C(C)CC3O)CC1)c1ccc(Cl)cc1
pIC50 [1]: 5.42
pIC50 [2]: 6.49
pIC50 [3]: > 7.50
pIC50 (curve of first compound, second compound 3.16 µM): > 7.50
pIC50 (curve of first compound, second compound 10 µM): > 7.50
viability, T/C [4]: 99.2%
viability, T/C [5]: 96.5%
viability, T/C [6]: 97.8%
viability, T/C [7]: 78%
viability, T/C [8]: 60.6%
viability, T/C [9]: 7.06%
viability, T/C [10]: 64.7%
viability, T/C [11]: 49.4%
viability, T/C [12]: 50.6%
viability, T/C [13]: 40.1%
viability, T/C [14]: 31.4%
viability, T/C [15]: 5.53%
viability, T/C [16]: 30%
viability, T/C [17]: 29.5%
viability, T/C [18]: 27.3%
viability, T/C [19]: 20.4%
viability, T/C [20]: 16%
viability, T/C [21]: 4.15%
viability, T/C (second compound 3.16 µM, first compound 0.0316 µM): 13.3%
viability, T/C (second compound 3.16 µM, first compound 0.1 µM): 13%
viability, T/C (second compound 3.16 µM, first compound 0.316 µM): 11.5%
viability, T/C (second compound 3.16 µM, first compound 1 µM): 12.3%
viability, T/C (second compound 3.16 µM, first compound 3.16 µM): 8.4%
viability, T/C (second compound 3.16 µM, first compound 10 µM): 3.13%
viability, T/C (second compound 10 µM, first compound 0.0316 µM): 8.33%
viability, T/C (second compound 10 µM, first compound 0.1 µM): 8.41%
viability, T/C (second compound 10 µM, first compound 0.316 µM): 8.13%
viability, T/C (second compound 10 µM, first compound 1 µM): 7.39%
viability, T/C (second compound 10 µM, first compound 3.16 µM): 5.52%
viability, T/C (second compound 10 µM, first compound 10 µM): 2.19%

pIC50 (curve of compound): 6.55 and 6.60
SMILES: Cc1nc(NC(=O)N2CCCC2C(N)=O)sc1-c1ccnc(C(C)(C)C(F)(F)F)c1 (stereo not drawn)
viability, T/C (compound 0.0316 µM): 87.3% and 95.4%
viability, T/C (compound 0.1 µM): 81.1% and 75.3%
viability, T/C (compound 0.316 µM): 46.4% and 43.7%
viability, T/C (compound 1 µM): 18.9% and 22.8%
viability, T/C (compound 3.16 µM): 14% and 15.1%
viability, T/C (compound 10 µM): 11.2% and 14.1%

SMILES: C=CC(=O)N1CCN(c2nc(=O)n(-c3c(C)ccnc3C(C)C)c3nc(-c4c(O)cccc4F)c(F)cc23)C(C)C1 (stereo not drawn) + CCN1CCN(Cc2ccc(Nc3ncc(F)c(-c4cc(F)c5nc(C)n(C(C)C)c5c4)n3)nc2)CC1
pIC50 (curve of first compound, second compound 0.01 µM): 5.33
pIC50 (curve of first compound, second compound 0.0316 µM): 6.91
pIC50 [1]: > 7.50
pIC50 [2]: > 7.50
pIC50 [3]: > 7.50
viability, T/C (second compound 0.01 µM, first compound 0.0316 µM): 90.2%
viability, T/C (second compound 0.01 µM, first compound 0.1 µM): 82.9%
viability, T/C (second compound 0.01 µM, first compound 0.316 µM): 82.8%
viability, T/C (second compound 0.01 µM, first compound 1 µM): 87.1%
viability, T/C (second compound 0.01 µM, first compound 3.16 µM): 57.2%
viability, T/C (second compound 0.01 µM, first compound 10 µM): 35.5%
viability, T/C (second compound 0.0316 µM, first compound 0.0316 µM): 58.9%
viability, T/C (second compound 0.0316 µM, first compound 0.1 µM): 47.8%
viability, T/C (second compound 0.0316 µM, first compound 0.316 µM): 43.2%
viability, T/C (second compound 0.0316 µM, first compound 1 µM): 41.2%
viability, T/C (second compound 0.0316 µM, first compound 3.16 µM): 35.1%
viability, T/C (second compound 0.0316 µM, first compound 10 µM): 20.5%
viability, T/C [4]: 33.9%
viability, T/C [5]: 28.7%
viability, T/C [6]: 31.4%
viability, T/C [7]: 29.6%
viability, T/C [8]: 23.3%
viability, T/C [9]: 13.2%
viability, T/C [10]: 19.7%
viability, T/C [11]: 22%
viability, T/C [12]: 22.1%
viability, T/C [13]: 21.2%
viability, T/C [14]: 18.1%
viability, T/C [15]: 14.1%
viability, T/C [16]: 19.3%
viability, T/C [17]: 21.5%
viability, T/C [18]: 20.9%
viability, T/C [19]: 16%
viability, T/C [20]: 19.2%
viability, T/C [21]: 10.9%

SMILES: Cn1nccc1Nc1nccc(-c2ccn(C(CO)c3ccc(Cl)c(F)c3)c(=O)c2)n1 (stereo not drawn)
viability, T/C (compound 0.0316 µM): 50.1% and 54.6%
viability, T/C (compound 0.1 µM): 42.6% and 45.7%
viability, T/C (compound 0.316 µM): 57.2% and 49.9%
viability, T/C (compound 1 µM): 44.4% and 49.7%
viability, T/C (compound 3.16 µM): 29% and 30.1%
viability, T/C (compound 10 µM): 19.7% and 21.3%
